Results taken from patent US9408853B2, “Iridium/rhodium anti-cancer compounds” (University of Warwick, priority 2010, dated 2016).

Columns and labels:
[1] = system: ca. 60 cell lines within nine tumour type subpanels; type: cell-based
Source text: Six complexes, [(η^5-C5Me4C6H4C6H5)Ir(bpy)Cl]PF6 (ZL25, bpy=2,2′-bipyridine), [(η^5-C5Me4C6H5)Ir(phen)Cl]PF6 (ZL33, phen=1,10-phenanthroline), [(η^5-C5Me4C6H4C6H5) Ir(pico)Cl] (ZL43, pico=picolinate), [(η^5-C5Me5)Ir(2-phpy)Cl] (ZL47), [(η^5-C5Me4C6H4C6H5)Ir(2-phPY)(D2O)Cl] (ZL49) and [(η^5-C5Me4C6H4C6H5) Ir(phen)Cl]PF6 (ZL54), were selected by Developmental Therapeutics Program of National Cancer Institute (NCI, U.S.A.) for in vitro screening test, in which 5 complexes except ZL43 are selected for further testing. The five complexes were tested on ca. 60 cell lines within nine tumour type subpanels at five concentrations ranging from 0.01 to 100 μM.

[2] = system: human ovarian A2780 cancer cells; assay: Cancer cell cytotoxicity, SRB assay; type: cell-based; details: 24 h exposure, 72 h recovery, SRB; read-out: A2780 IC50
In short: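 Cells plated at 5000/well were dosed on day 3 with Ir^III complexes (0.05–100 μM, from DMSO stocks diluted into saline and medium) for 24 h. After washout they grew for 72 h in fresh medium before SRB protein staining as a survival read-out. Two independent experiments of three replicates each.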

9-ethyladenine (9-EtA) = assay: Interactions with nucleobases: 9-EtA adduct formation (1H NMR); type: binding; details: 10 min; 1 mM, 1 mol equiv 9-EtA, D2O, 310 K
Protocol: Interactions with Nucleobases. The reaction of ZL01, ZL03, ZL04, ZL07, ZL25, ZL33, ZL37, ZL38, ZL43 and ZL54 and ZL33A with nucleobases typically involved addition of a solution containing 1-2 mol equiv of nucleobase in D2O, to an equilibrium solution of ZL01, ZL03, ZL04, ZL07, ZL25, ZL33, ZL37, ZL38, ZL43, ZL54 and ZL33A in a solution of 5% MeOD-d4/95% D2O (v/v). ^1H NMR spectra of these solutions were recorded at 310 K after various time intervals.
Since DNA is a potential target site for transition metal anticancer complexes,^18 nucleobase binding reactions of compounds ZL01, ZL03, ZL04, ZL07, ZL25, ZL33, ZL33A, ZL37, ZL38, ZL43 and ZL54 with nucleobase models 9-ethylguanine (9-EtG) and 9-ethyladenine (9-EtA), were investigated. Solutions of ZL01, ZL03, ZL04, ZL07, ZL25, ZL33, ZL37, ZL38, ZL43 and ZL54 (1 mM) (containing an equilibrium mixture of these complexes and their respective aqua adducts) with 1 mol equivalent of 9-EtG or 9-EtA in D2O were prepared, and ^1H NMR spectra were recorded at different time intervals.

Structure (SMILES): Cc1c(C)c(-c2ccccc2)[c-](C)c1C.F[P-](F)(F)(F)(F)F.[Cl-].[Ir+3].c1cnc2c(c1)ccc1cccnc12 (stereo not drawn) [ZL33, [(η^5-C5Me4C6H5)Ir(phen)Cl]PF6]
- CC50 [1]: 93.3 µM
- Mean graph midpoint (MID) TGI ([1]; ca. 60 cell lines, 0.01 to 100 μM): 51.3 µM
- GI50 ([1]; ca. 60 cell lines, 0.01 to 100 μM, read-out: Mean graph midpoint (MID) GI50): 10.7 µM
- selectivity among tumour type subpanels (in words) ([1]; mean graphs): selective for leukemia, CNS cancer, melanoma, and prostate cancer
- IC50 [2]: 6.7 µM
- Reaction with 9-EtA, extent of adduct formation (9-ethyladenine (9-EtA)): 0%
